From patent US9144595B2, “APLs for treating arthritis” (University of Tennessee Research Foundation, priority 2009, dated 2015)
Several values for one entry are separate records, joined by “and”; a condition that tells them apart may be missing. Identical values can stand only once. Entries after “also recorded” stand apart in the source; their conditions may differ.

Assays:
DR4 mice = experiment: Suppression of immunity to CII and arthritis in DR4 mice; format: in vivo, mouse; conditions: high-responder DR4 mice
Method: Assuming that CII263-270 was key to developing immunity to the intact CII molecule, a number of analog peptides where amino acids within this small segment were substituted with those found in the corresponding sites of nonarthritogenic type I collagen were prepared and tested. […] The APL A12 developed for this study has the following amino acid sequence: LGPKGQTGEBG[IAGNKGDQGPK]GEBGPA (SEQ ID NO: 3) where B=hydroxproline. The core determinant of human CII263-270 is bracketed. The underlined residues are those substituted to produce APL A12. The residues amino terminal and carboxy terminal to the core determinant is from the normal human CII sequence.

[1] = system: splenocytes of DR1 transgenic mice; experiment: Oral APL A12: IFNγ production by cultured splenocytes of DR1 transgenic mice; format: in vivo, mouse
[2] = system: Spleen tyrosine kinase (Syk); experiment: Syk phosphorylation in CD4+ T cells of DR1/TCR transgenic mice (flow cytometry); format: cell-based, mouse; conditions: APCs prepulsed with peptide, compared with media controls
Text: Since T cells clearly responded to A12 differently than to the wild type A2 peptide, we analyzed them for the possibility that they might be utilizing an alternative signaling pathway. Spleen tyrosine kinase (Syk), a kinase ordinarily utilized by B cells was selected for further analysis. In these experiments, CD4^+ T-cells from the DR1/TCR transgenic mice were purified by negative selection (using a Miltenyi kit) and stained with an antibody specific for phospho Syk following exposure to APCs prepulsed with either A2 or A12. […] Histograms were generated using flow cytometry with gating specifically on the CD4^+ population, confirming that the changes observed were produced by T-cells.
FIGS. 5A and 5B show T cell signaling induced by A2 and A12. Flow cytometry was performed using purified CD4+ T cells from spleens of DR1 TCR Tg mice. The T cells were stimulated by APCs pre-pulsed with A2, A12 or no peptide (Control) for 5 minutes. The cells were then fixed, permeabilized, and stained with an antibody specific for phospho-Syk (Tyr 323) (left panel) or phospho-ERK 1/2 (right panel) and analyzed by flow cytometry. Both plots are gated on CD4 T cells. Axes 510, 540, show the number of events and axes 515, 545 show a logarithmic scale for Anti-phospho Erk and Syk respectively, for FIGS. 5A and 5B. In FIG. 5A line 520 is for A2 peptide, line 525 is the control, and line 530 is the A12 peptide. […]

RA PBMC [3] = experiment: 27 cytokines multiplex assay of 48 h RA PBMC culture supernatants; format: cell-based, human; conditions: APL A12 10 μg/ml + α1(II) 50 μg/ml, 6 RA patients
Method: (§1) We assessed the ability of APL A12 added to cultures of PBMC to affect production of IFNγ and other Th1 and Th2 cytokines by the cultured PBMC stimulated with α1(II) from 18 RA patients, 16 of whom had known HLA DR B1 haplotypes. 16 of these patients were taking methothexate, 10 NSAIDS and 12 anti-TNF agents. One patient was taking Arava. Isolated PBMC were resuspended in Dulbecco's minimal essential medium containing penicillin (100 U/ml), streptomycin (100 μg/ml), 9% fetal calf serum (FCS), and non-essential amino acids thereafter referred to as “Complete Medium” at a concentration of 4×10^6 cells/ml. Aliquots (0.5 ml) of the cell suspension were dispensed into wells of 48 well tissue culture plates (NUNC, Roskilde, Denmark).

RA PBMC [4] = experiment: APL A12 inhibition of IFNγ production by α1(II)-stimulated RA PBMC; format: cell-based, human; conditions: for IFNy Stimulation Index: 144 h
Method: as §1

DR1 Transgenic mice [5] = experiment: Oral (gavage) APL A12 suppression of CIA in DR1 transgenic mice; format: in vivo, mouse; conditions: for arthritis severity: FIG. 1
DR1 Transgenic mice [6] = experiment: Acute toxicity study of HC Peptide 1 in DR1 transgenic mice; format: in vivo, mouse
TCR-ζ chain = experiment: Phosphorylation of the TCR-ζ chain in CII-specific CD4+ T cells; format: cell-based, mouse; conditions: CD4+ T cells cultured with peptide-pulsed APCs; FIG. 4
Method: Purified CD4+ cells from the DR1-TCR tg mice are an excellent source of cells to explore the intracellular signaling pathways induced by either A2 or A12. In preliminary experiments we precipitated proteins with an antibody specific for CD3-ζ (34) to examine for the presence of phosphorylated proteins.
CD4+T cells were cultured with APC's pulsed with the wild-type peptide (WT), A12, or no antigen (No Ag). Proteins were immunoprecipitated with […] of affinity-purified anti-TCR-ζ antibody. The immunoprecipitates were separated by SDS-12%-PAGE, and transferred to nitrocellulose membrane. The membrane was blotted with monoclonal anti-phosphotyrosine antibody (α-pTyr). The positions of the phosphorylated-TCR-ζ are shown by arrows 410, 415. The 21 kDa and 23 kDa bands were not detected in immunoprecipitates from a B cell lymphoma line (data not shown). Bands for the total amount of zeta protein were identical for all three columns. Arrows 410 and 415 are shown denoting 21 kDa and 23 kDa bands, respectively. […] The bands are for No Ag 440, Wt 445, and A12 450. The bands are shown: Wt 425, No Ag 435, A12 430. Bands for zeta protein are shown: No Ag 455, Wt 460, and A12 465.

Zap-70 = Zap-70 phosphorylation in CD4+ T cells of DR1/TCR transgenic mice (flow cytometry); format: cell-based, mouse; conditions: APCs prepulsed with peptide; data not shown

## LGPKGQTGEBGIAGAKGDQGPKGEBGPA [APL A12]
DR4 mice
  immunity to CII and arthritis: profoundly suppress
[1]; mice gavaged with 50 μg APL A12 8 times over 2 weeks, splenocytes cultured with PBS
  IFNγ Levels in Splenocyte Culture: 2 ± 3 pg/mL
[1]; mice gavaged with 50 μg APL A12, splenocytes cultured with APL A12 50 μg/ml
  IFNγ Levels in Splenocyte Culture: 5 ± 10 pg/mL
[1]; mice gavaged with 50 μg APL A12, splenocytes cultured with CII263-270 50 μg/ml
  IFNγ Levels in Splenocyte Culture: 12 ± 20 pg/mL
[1]; mice gavaged with PBS, splenocytes cultured with APL A12 50 μg/ml
  IFNγ Levels in Splenocyte Culture: 65 ± 52 pg/mL
[2]
  Syk phosphorylation: induced significant Syk phosphorylation
RA PBMC [3]
  IL-1ra: 2013 ± 220 pg/mL
  IL-2: 6 ± 0.9 pg/mL
  IL-10: 555 ± 104 pg/mL
  IP-10: 114 ± 91 pg/mL
  PDGF-bb: 39 ± 25 pg/mL
  RANTES: 750 ± 183 pg/mL
  TNFα: 84 ± 17 pg/mL
RA PBMC [4]; APL A12 alone, without α1(II), data not shown
  IFNγ production by RA PBMC: no change from PBS control
RA PBMC [4]; NIH oral CII study
  RA patients who responded to APL A12 in vitro: 50%
RA PBMC [4]; patients with the RA susceptibility shared epitope
  patients with IFNγ production down-regulated by ≧50%: 7 of 10
RA PBMC [4]; patients without the shared epitopes
  patients with IFNγ production down-regulated by ≧50%: 2 of 6
RA PBMC [4]; α1(II) + APL A12 1 μg/ml, individual patients with No Shared Epitope
  IFNy Stimulation Index: 49 and 45 and 1120 and 928 and 586 and 75
RA PBMC [4]; α1(II) + APL A12 1 μg/ml, individual patients with Shared Epitope
  IFNy Stimulation Index: 139 and 49 and 742 and 908 and 3190 and 85 and 203 and −65 and −74
RA PBMC [4]; α1(II) + APL A12 1 μg/ml, individual patients, HLA Unknown
  IFNy Stimulation Index: 42 and 228
RA PBMC [4]; α1(II) + APL A12 10 μg/ml, individual patients with No Shared Epitope
  IFNy Stimulation Index: 12 and −3 and 1220 and 807 and 479 and 91
RA PBMC [4]; α1(II) + APL A12 10 μg/ml, individual patients with Shared Epitope
  IFNy Stimulation Index: 291 and 68 and 37 and 1220 and 644 and 2111 and 93 and 110 and −54 and −66
RA PBMC [4]; α1(II) + APL A12 10 μg/ml, individual patients, HLA Unknown
  IFNy Stimulation Index: 73 and 180
RA PBMC [4]; α1(II) + APL A12 25 μg/ml, individual patients with No Shared Epitope
  IFNy Stimulation Index: 16 and 50 and 934 and 778 and 357 and 106
RA PBMC [4]; α1(II) + APL A12 25 μg/ml, individual patients with Shared Epitope
  IFNy Stimulation Index: 15 and 113 and 123 and 493 and 1350 and 2620 and 154 and 83 and −24 and 1
RA PBMC [4]; α1(II) + APL A12 25 μg/ml, individual patients, HLA Unknown
  IFNy Stimulation Index: 121 and 214
DR1 Transgenic mice [5]; 10 μg gavaged 8 days over two weeks before CII immunization
  arthritis severity: significantly reduced
DR1 Transgenic mice [5]; 50 μg gavaged 8 days over two weeks before CII immunization
  arthritis severity: significantly reduced
DR1 Transgenic mice [5]; given orally by gavage
  most effective dose: 50 µg/day
DR1 Transgenic mice [5]; low oral dose (10-50 μg), mice transgenic for human DR1
  development of arthritis induced by immunization with bovine CII: protects
DR1 Transgenic mice [5]; mice bearing a transgene for human DR1
  CII induced arthritis: effective in reducing
DR1 Transgenic mice [6]; after 6 days gavage with 100× the human dose vs IV saline
  complete blood counts (CBC): similar
DR1 Transgenic mice [6]; gavaged for six days with 100× human dose vs IV saline, listed as HC Peptide 1
  Histologic assessment of internal organs (livers, spleens, kidneys, hearts, lungs): no difference; also recorded: did not reveal abnormalities
DR1 Transgenic mice [6]; oral, 100× the proposed human dose daily for six days
  clinical signs of illness, changes in complete blood counts or liver and renal chemistries: not associated
DR1 Transgenic mice [6]; over the six days gavaged with 100× the human dose, vs IV saline
  Changes in body weight: similar
TCR-ζ chain
  TCR-ζ chain phosphorylation: did not significantly activate
Zap-70
  Zap-70 phosphorylation: little effect
